Reference: ChEMBL document CHEMBL1275257, “Antimicrobial activity of CHIR-090, an inhibitor of lipopolysaccharide biosynthesis, against the Burkholderia cepacia complex” (2010)
Values after ≈ are worked out from the molar mass of the structure shown. One block for each compound: values may come before it. Active and inactive are the calls of the source. The calls are words filed in the database; no cut-off is given here.

What was measured:
Burkholderia multivorans [1] = assay: Antimicrobial activity against genomovar type II Burkholderia multivorans C1576 at 40 ug/disk by disk diffusion growth inhibition assay; format: functional; conditions: read-out: DIZ
[2] = tested on: Burkholderia vietnamiensis; assay: Antimicrobial activity against genomovar type V Burkholderia vietnamiensis LMG 16232 at 40 ug/disk by disk diffusion growth inhibition assay; format: functional; conditions: read-out: DIZ
[3] = tested on: Burkholderia vietnamiensis; assay: Antimicrobial activity against genomovar type V Burkholderia vietnamiensis PC259 at 40 ug/disk by disk diffusion growth inhibition assay; format: functional; conditions: read-out: DIZ
Burkholderia cenocepacia [4] = assay: Antimicrobial activity against genomovar type III Burkholderia cenocepacia PC184 at 40 ug/disk by disk diffusion growth inhibition assay; format: functional; conditions: read-out: DIZ
Burkholderia pyrrocinia [5] = assay: Antimicrobial activity against genomovar type IX Burkholderia pyrrocinia BC011 at 40 ug/disk by disk diffusion growth inhibition assay; format: functional; conditions: read-out: DIZ
Burkholderia anthina [6] = assay: Antimicrobial activity against genomovar type VIII Burkholderia anthina C1765 at 40 ug/disk by disk diffusion growth inhibition assay; format: functional; conditions: read-out: DIZ
[7] = tested on: Burkholderia vietnamiensis; assay: Antimicrobial activity against genomovar type V Burkholderia vietnamiensis FC441 at 40 ug/disk by disk diffusion growth inhibition assay; format: functional; conditions: read-out: DIZ
Burkholderia cenocepacia [8] = assay: Antimicrobial activity against genomovar type III Burkholderia cenocepacia BC7 at 40 ug/disk by disk diffusion growth inhibition assay; format: functional, organism-based
Burkholderia cenocepacia [9] = assay: Antimicrobial activity against genomovar type III Burkholderia cenocepacia SAL1 at 40 ug/disk by disk diffusion growth inhibition assay; format: functional, organism-based
Burkholderia cepacia [10] = assay: Antimicrobial activity against genomovar type I Burkholderia cepacia ATCC 25416 at 40 ug/disk by disk diffusion growth inhibition assay; format: functional, organism-based
Burkholderia multivorans [11] = assay: Antimicrobial activity against genomovar type II Burkholderia multivorans C1962 at 40 ug/disk by disk diffusion growth inhibition assay; format: functional; conditions: read-out: DIZ
[12] = tested on: Burkholderia vietnamiensis; assay: Antimicrobial activity against genomovar type V Burkholderia vietnamiensis LMG 10929 at 40 ug/disk by disk diffusion growth inhibition assay; format: functional; conditions: read-out: DIZ
Burkholderia cenocepacia [13] = assay: Antimicrobial activity against genomovar type III Burkholderia cenocepacia J415 at 40 ug/disk by disk diffusion growth inhibition assay; format: functional; conditions: read-out: DIZ
Burkholderia multivorans [14] = assay: Antimicrobial activity against genomovar type II Burkholderia multivorans 249-2; format: functional
Burkholderia multivorans [15] = assay: Antimicrobial activity against genomovar type II Burkholderia multivorans C1576; format: functional
Burkholderia multivorans [16] = assay: Antimicrobial activity against genomovar type II Burkholderia multivorans JTC at 40 ug/disk by disk diffusion growth inhibition assay; format: functional; conditions: read-out: DIZ
Burkholderia multivorans [17] = assay: Antimicrobial activity against genomovar type II Burkholderia multivorans ATCC 17616 at 40 ug/disk by disk diffusion growth inhibition assay; format: functional; conditions: read-out: DIZ
Burkholderia dolosa [18] = assay: Antimicrobial activity against genomovar type VI Burkholderia dolosa CEP021 at 40 ug/disk by disk diffusion growth inhibition assay; format: functional; conditions: read-out: DIZ
Burkholderia multivorans [19] = assay: Antimicrobial activity against genomovar type II Burkholderia multivorans JTC; format: functional
Burkholderia ambifaria [20] = assay: Antimicrobial activity against genomovar type VII Burkholderia ambifaria ATCC 53266 at 40 ug/disk by disk diffusion growth inhibition assay; format: functional; conditions: read-out: DIZ
Burkholderia stabilis [21] = assay: Antimicrobial activity against genomovar type IV Burkholderia stabilis C7322 at 40 ug/disk by disk diffusion growth inhibition assay; format: functional; conditions: read-out: DIZ
Burkholderia multivorans [22] = assay: Antimicrobial activity against genomovar type II Burkholderia multivorans ATCC 17616; format: functional
Burkholderia cenocepacia [23] = assay: Antimicrobial activity against genomovar type III Burkholderia cenocepacia J2315 at 40 ug/disk by disk diffusion growth inhibition assay; format: functional, organism-based
Burkholderia ambifaria [24] = assay: Antimicrobial activity against genomovar type VII Burkholderia ambifaria CEP0996 at 40 ug/disk by disk diffusion growth inhibition assay; format: functional; conditions: read-out: DIZ
Burkholderia multivorans [25] = assay: Antimicrobial activity against genomovar type II Burkholderia multivorans C1962; format: functional
Burkholderia stabilis [26] = assay: Antimicrobial activity against genomovar type IV Burkholderia stabilis LMG 14294 at 40 ug/disk by disk diffusion growth inhibition assay; format: functional
Burkholderia cenocepacia [27] = assay: Antimicrobial activity against genomovar type III Burkholderia cenocepacia CEP511 at 40 ug/disk by disk diffusion growth inhibition assay; format: functional, organism-based
Burkholderia anthina [28] = assay: Antimicrobial activity against genomovar type VIII Burkholderia anthina J2552 at 40 ug/disk by disk diffusion growth inhibition assay; format: functional
Burkholderia ambifaria [29] = assay: Antimicrobial activity against genomovar type VII Burkholderia ambifaria AMMD at 40 ug/disk by disk diffusion growth inhibition assay; format: functional; conditions: read-out: DIZ
Burkholderia cepacia [30] = assay: Antimicrobial activity against genomovar type I Burkholderia cepacia ATCC 17759 at 40 ug/disk by disk diffusion growth inhibition assay; format: functional, organism-based
Burkholderia dolosa [31] = assay: Antimicrobial activity against genomovar type VI Burkholderia dolosa STM1441 at 40 ug/disk by disk diffusion growth inhibition assay; format: functional; conditions: read-out: DIZ
Burkholderia dolosa [32] = assay: Antimicrobial activity against genomovar type VI Burkholderia dolosa E12 at 40 ug/disk by disk diffusion growth inhibition assay; format: functional; conditions: read-out: DIZ
Burkholderia anthina [33] = assay: Antimicrobial activity against genomovar type VIII Burkholderia anthina W92 at 40 ug/disk by disk diffusion growth inhibition assay; format: functional
Burkholderia cenocepacia [34] = assay: Antimicrobial activity against genomovar type III Burkholderia cenocepacia C5424 at 40 ug/disk by disk diffusion growth inhibition assay; format: functional; conditions: read-out: DIZ
Burkholderia multivorans [35] = assay: Antimicrobial activity against genomovar type II Burkholderia multivorans 2492-2 at 40 ug/disk by disk diffusion growth inhibition assay; format: functional; conditions: read-out: DIZ
Escherichia coli = assay: Antimicrobial activity against Escherichia coli 25922; format: functional
Burkholderia cenocepacia [36] = assay: Antimicrobial activity against genomovar type III Burkholderia cenocepacia C6433 at 40 ug/disk by disk diffusion growth inhibition assay; format: functional, organism-based
Pseudomonas aeruginosa [37] = assay: Antimicrobial activity against Pseudomonas aeruginosa ATCC 27853; format: functional
Burkholderia stabilis [38] = assay: Antimicrobial activity against genomovar type IV Burkholderia stabilis LMG 18888 at 40 ug/disk by disk diffusion growth inhibition assay; format: functional
Pseudomonas aeruginosa [39] = assay: Antimicrobial activity against Pseudomonas aeruginosa ATCC 10145; format: functional
Burkholderia dolosa [40] = assay: Antimicrobial activity against genomovar type VI Burkholderia dolosa AU0645 at 40 ug/disk by disk diffusion growth inhibition assay; format: functional; conditions: read-out: DIZ
Burkholderia cepacia [41] = assay: Antimicrobial activity against genomovar type I Burkholderia cepacia CEP509 at 40 ug/disk by disk diffusion growth inhibition assay; format: functional, organism-based
Burkholderia stabilis [42] = assay: Antimicrobial activity against genomovar type IV Burkholderia stabilis LMG 14086 at 40 ug/disk by disk diffusion growth inhibition assay; format: functional
Burkholderia multivorans [43] = assay: Antimicrobial activity against genomovar type II Burkholderia multivorans CF-A1-1; format: functional
Burkholderia cenocepacia [44] = assay: Antimicrobial activity against genomovar type III Burkholderia cenocepacia ATCC 17765 at 40 ug/disk by disk diffusion growth inhibition assay; format: functional, organism-based
Burkholderia pyrrocinia [45] = assay: Antimicrobial activity against genomovar type IX Burkholderia pyrrocinia ATCC 39277 at 40 ug/disk by disk diffusion growth inhibition assay; format: functional; conditions: read-out: DIZ
Burkholderia pyrrocinia [46] = assay: Antimicrobial activity against genomovar type IX Burkholderia pyrrocinia ATCC 15958 at 40 ug/disk by disk diffusion growth inhibition assay; format: functional; conditions: read-out: DIZ
Burkholderia anthina [47] = assay: Antimicrobial activity against genomovar type VIII Burkholderia anthina AU1293 at 40 ug/disk by disk diffusion growth inhibition assay; format: functional; conditions: read-out: DIZ
Burkholderia multivorans [48] = assay: Antimicrobial activity against genomovar type II Burkholderia multivorans C5393; format: functional
Burkholderia multivorans [49] = assay: Antimicrobial activity against genomovar type II Burkholderia multivorans LMG 13010 at 40 ug/disk by disk diffusion growth inhibition assay; format: functional; conditions: read-out: DIZ
Burkholderia multivorans [50] = assay: Antimicrobial activity against genomovar type II Burkholderia multivorans CFA11 at 40 ug/disk by disk diffusion growth inhibition assay; format: functional; conditions: read-out: DIZ
Burkholderia pyrrocinia [51] = assay: Antimicrobial activity against genomovar type IX Burkholderia pyrrocinia C1469 at 40 ug/disk by disk diffusion growth inhibition assay; format: functional
Burkholderia cenocepacia [52] = assay: Antimicrobial activity against genomovar type III Burkholderia cenocepacia K562 at 40 ug/disk by disk diffusion growth inhibition assay; format: functional, organism-based
Burkholderia multivorans [53] = assay: Antimicrobial activity against genomovar type II Burkholderia multivorans C5393 at 40 ug/disk by disk diffusion growth inhibition assay; format: functional; conditions: read-out: DIZ

MIC (Burkholderia multivorans [14]): 0.1 µg/mL (≈ 0.229 µM) | MIC (Burkholderia multivorans [15]): 12.5 µg/mL (≈ 28.6 µM) | MIC (Burkholderia multivorans [19]): 1.56 µg/mL (≈ 3.57 µM) | MIC (Burkholderia multivorans [22]): 6.25 µg/mL (≈ 14.3 µM) | MIC (Burkholderia multivorans [25]): 3.13 µg/mL (≈ 7.15 µM) | MIC (Escherichia coli): 0.05 µg/mL (≈ 0.114 µM) | MIC (Pseudomonas aeruginosa [37]): 0.78 µg/mL (≈ 1.78 µM) | MIC (Pseudomonas aeruginosa [39]): 0.78 µg/mL (≈ 1.78 µM) | MIC (Burkholderia multivorans [43]): 1.56 µg/mL (≈ 3.57 µM) | MIC (Burkholderia multivorans [48]): 3.13 µg/mL (≈ 7.15 µM)
Compound: C[C@@H](O)[C@H](NC(=O)c1ccc(C#Cc2ccc(CN3CCOCC3)cc2)cc1)C(=O)NO
zone of inhibition at 40 µg/disc (Burkholderia multivorans [1]): 15 mm | zone of inhibition at 40 µg/disc [2]: 23 mm | zone of inhibition at 40 µg/disc [3]: 26 mm | zone of inhibition at 40 µg/disc (Burkholderia cenocepacia [4]): 18 mm | zone of inhibition at 40 µg/disc (Burkholderia pyrrocinia [5]): 23 mm | zone of inhibition at 40 µg/disc (Burkholderia anthina [6]): 13 mm | zone of inhibition at 40 µg/disc [7]: 9 mm | diameter of the inhibition zone (DIZ) (Burkholderia cenocepacia [8]): inactive | diameter of the inhibition zone (DIZ) (Burkholderia cenocepacia [9]): inactive | diameter of the inhibition zone (DIZ) (Burkholderia cepacia [10]): inactive | zone of inhibition at 40 µg/disc (Burkholderia multivorans [11]): 24 mm | zone of inhibition at 40 µg/disc [12]: 23 mm | zone of inhibition at 40 µg/disc (Burkholderia cenocepacia [13]): 21 mm | zone of inhibition at 40 µg/disc (Burkholderia multivorans [16]): 23 mm | zone of inhibition at 40 µg/disc (Burkholderia multivorans [17]): 17 mm | zone of inhibition at 40 µg/disc (Burkholderia dolosa [18]): 24 mm | zone of inhibition at 40 µg/disc (Burkholderia ambifaria [20]): 24 mm | zone of inhibition at 40 µg/disc (Burkholderia stabilis [21]): 14 mm | diameter of the inhibition zone (DIZ) (Burkholderia cenocepacia [23]): inactive | zone of inhibition at 40 µg/disc (Burkholderia ambifaria [24]): 22 mm | diameter of the inhibition zone (DIZ) (Burkholderia stabilis [26]): inactive | diameter of the inhibition zone (DIZ) (Burkholderia cenocepacia [27]): inactive | diameter of the inhibition zone (DIZ) (Burkholderia anthina [28]): inactive | zone of inhibition at 40 µg/disc (Burkholderia ambifaria [29]): 23 mm | diameter of the inhibition zone (DIZ) (Burkholderia cepacia [30]): inactive | zone of inhibition at 40 µg/disc (Burkholderia dolosa [31]): 21 mm | zone of inhibition at 40 µg/disc (Burkholderia dolosa [32]): 23 mm | diameter of the inhibition zone (DIZ) (Burkholderia anthina [33]): inactive | zone of inhibition at 40 µg/disc (Burkholderia cenocepacia [34]): 19 mm | zone of inhibition at 40 µg/disc (Burkholderia multivorans [35]): 26 mm | diameter of the inhibition zone (DIZ) (Burkholderia cenocepacia [36]): inactive | diameter of the inhibition zone (DIZ) (Burkholderia stabilis [38]): inactive | zone of inhibition at 40 µg/disc (Burkholderia dolosa [40]): 18 mm | diameter of the inhibition zone (DIZ) (Burkholderia cepacia [41]): inactive | diameter of the inhibition zone (DIZ) (Burkholderia stabilis [42]): inactive | diameter of the inhibition zone (DIZ) (Burkholderia cenocepacia [44]): inactive | zone of inhibition at 40 µg/disc (Burkholderia pyrrocinia [45]): 22 mm | zone of inhibition at 40 µg/disc (Burkholderia pyrrocinia [46]): 20 mm | zone of inhibition at 40 µg/disc (Burkholderia anthina [47]): 10 mm | zone of inhibition at 40 µg/disc (Burkholderia multivorans [49]): 14 mm | zone of inhibition at 40 µg/disc (Burkholderia multivorans [50]): 22 mm | diameter of the inhibition zone (DIZ) (Burkholderia pyrrocinia [51]): inactive | diameter of the inhibition zone (DIZ) (Burkholderia cenocepacia [52]): inactive | zone of inhibition at 40 µg/disc (Burkholderia multivorans [53]): 20 mm

MIC (Escherichia coli): 0.78 µg/mL | MIC (Pseudomonas aeruginosa [37]): 3.13 µg/mL | MIC (Pseudomonas aeruginosa [39]): 3.13 µg/mL
Compound: POLYMYXIN B
